Measurements published in PMC7179227, “Antigenotoxic, Anti-photogenotoxic, and Antioxidant Properties of Polyscias filicifolia Shoots Cultivated In Vitro” (Molecules, 2020).
Read-outs that look alike come from different tables or passages of the source.

Legend:
[1] = test system: S. typhimurium TA1535/pSK1002; conditions: mixture with 4NQO 0.05 μg/mL
Procedure: Salmonella typhimurium strain TA1535/pSK1002 was purchased from Deutsche Sammlung von Mikroorganismen und Zellkulturen GmbH (DSMZ, Germany).
The strain used in the test carries the fusion of umuC and lacZ genes, which are placed at the plasmid pSK1002. […] In the present study, the umu-test was carried out in the micro-plate variant according to the ISOguideline [61]. β -galactosidase activity of the tested compound was presented as induction ratio (IR). IR was calculated as the β -galactosidase activity of the tested compound relative to the negative control.
IR was calculated on the basis of spectrophotometric measurement. The absorption at 420 nm indicated the intensity of the enzymatic reaction, and the optical density at 600 nm indicated the bacteria growth. The measurements were performed with an Asys UVM340 Hightech microplate spectrophotometer.
At the same time, the genotoxicity of PhAs (10 μ g/mL) and EXTs (0.25–2 mg/mL) was investigated.

[2] = test system: S. typhimurium TA1535/pSK1002; format: cell-based, Salmonella typhimurium
Procedure: (§1) IR was calculated on the basis of spectrophotometric measurement.

[3] = test system: S. typhimurium TA1535/pSK1002
Procedure: as §1
The anti-photogenotoxicity was determined using chlorpromazine (CPZ) as an agent inducing genotoxic response under UVA irradiation by forming an unstable promazyl radical which is able to bind to DNA [62]. The protocol developed by Skrzypczak et. al was applied. […] The rate of anti-photogenotoxicity was calculated using the same formula as the rate of antigenotoxicity.

[4] = test system: S. typhimurium TA1535/pSK1002; conditions: −S9, highest tested concentration 10 μg/mL
Procedure: as §1

[5] = test system: S. typhimurium TA1535/pSK1002; remark: listed apart in the source
Procedure: Metabolic activation was obtained with S9 fraction prepared from livers of male Sprague Dawley rats. […] After isolation, the evaluation of cytochrome p450 level was performed and samples were stored at −80 ^∘ C. The S9 mix was prepared according to the method described by Maron and Ames.
as §1

[6] = test system: S. typhimurium TA98 strain; conditions: against 4NQO; cited from earlier work
[7] = test system: MMC genotoxicity; conditions: CGA 5 and 50 μM, MMC 0.9 μM (0.3 μg/mL); cited from earlier work
[8] = mixture with MMC 0.004 μg/mL, PhA 5 μg/mL
[9] = mixture with MMC 0.004 μg/mL, PhA 10 μg/mL
[10] = mixture with MMC 0.004 μg/mL, PhA […]
[11] = mixture with MMC 0.02 μg/mL, PhA 5 μg/mL
[12] = mixture with MMC 0.02 μg/mL, PhA 10 μg/mL
[13] = mixture with MMC 0.02 μg/mL, PhA […]
[14] = mixture with CPZ 5 μg/mL, UVA, PhA 5 μg/mL
[15] = mixture with CPZ 5 μg/mL, UVA, PhA 10 μg/mL
[16] = mixture with CPZ 5 μg/mL, UVA, PhA […]
[17] = mixture with CPZ 10 μg/mL, UVA, PhA 5 μg/mL
[18] = mixture with CPZ 10 μg/mL, UVA, PhA 10 μg/mL
[19] = mixture with CPZ 10 μg/mL, UVA, PhA […]
[20] = +S9, highest tested concentration 10 μg/mL
[21] = mixture with 2AA 1 μg/mL, PhA concentration 0.3125 (mg/mL)
[22] = mixture with 2AA 1 μg/mL, PhA concentration 0.625 (mg/mL)
[23] = mixture with 2AA 1 μg/mL, PhA concentration 1.25 (mg/mL)
[24] = mixture with 2AA 1 μg/mL, PhA concentration 2.5 (mg/mL)
[25] = mixture with 2AA 1 μg/mL, PhA concentration 5 (mg/mL)
[26] = mixture with 2AA 1 μg/mL, PhA concentration 10 (mg/mL)
[27] = mixture with 2AA 10 μg/mL, PhA concentration 0.3125 (mg/mL)
[28] = mixture with 2AA 10 μg/mL, PhA concentration 0.625 (mg/mL)
[29] = mixture with 2AA 10 μg/mL, PhA concentration 1.25 (mg/mL)
[30] = mixture with 2AA 10 μg/mL, PhA concentration 2.5 (mg/mL)
[31] = mixture with 2AA 10 μg/mL, PhA concentration 5 (mg/mL)
[32] = mixture with 2AA 10 μg/mL, PhA concentration 10 (mg/mL)

Structure (SMILES)	IR (mean ± SD) ([1]; PhA 5 μg/mL)	IR (mean ± SD) ([1]; PhA 10 μg/mL)	IR (mean ± SD) [2, 8]	IR (mean ± SD) [2, 9]	IR (mean ± SD) [2, 10]	IR (mean ± SD) [2, 11]	IR (mean ± SD) [2, 12]	IR (mean ± SD) [2, 13]	Anti-Photogenotox. ([3]; CPZ 5 μg/mL, UVA, PhA […]) [%]	Anti-Photogenotox. ([3]; CPZ 10 μg/mL, UVA, PhA […]) [%]	IR (mean ± SD) [3, 14]	IR (mean ± SD) [3, 15]	IR (mean ± SD) [3, 16]	IR (mean ± SD) [3, 17]	IR (mean ± SD) [3, 18]	IR (mean ± SD) [3, 19]	IR (mean ± SD) [4]	IR (mean ± SD) [5, 20]	IR (mean ± SD) [5, 21]	IR (mean ± SD) [5, 22]	further results
COc1cc(/C=C/C(=O)O)ccc1O [FA, ferulic acid]	3.6 ± 0.67	4.0 ± 0.70	2.5 ± 0.62	2.3 ± 0.51	2.6 ± 0.93	5 ± 1.2	5 ± 1.2	5 ± 1.2	20	14	3.0 ± 0.37	3.2 ± 0.20	3.0 ± 0.41	4.5 ± 0.73	4.3 ± 0.46	4 ± 1.1	1.2 ± 0.10	1.1 ± 0.14	3.1 ± 0.73	2.7 ± 0.37	Anti-Photogenotox. ([3]; CPZ 5 μg/mL, UVA, PhA 5 μg/mL): 15%; Anti-Photogenotox. ([3]; CPZ 5 μg/mL, UVA, PhA 10 μg/mL): 11%; Anti-Photogenotox. ([3]; CPZ 10 μg/mL, UVA, PhA 10 μg/mL): 15%; Antigenotox. ([5]; 2AA 1 μg/mL, PhA concentration 0.625 (mg/mL)): 19%; IR (mean ± SD) [5, 23]: 2.9 ± 0.66; IR (mean ± SD) [5, 24]: 2.8 ± 0.58; IR (mean ± SD) [5, 25]: 3.4 ± 0.96; IR (mean ± SD) [5, 26]: 4 ± 1.0; IR (mean ± SD) [5, 27]: 2.9 ± 0.43; IR (mean ± SD) [5, 28]: 3.1 ± 0.75; IR (mean ± SD) [5, 29]: 3.3 ± 0.63; IR (mean ± SD) [5, 30]: 3.2 ± 0.45; IR (mean ± SD) [5, 31]: 4 ± 1.3; IR (mean ± SD) [5, 32]: 5 ± 1.4
O=C(O)/C=C/c1ccc(O)c(O)c1 [CA, caffeic acid]	3.7 ± 0.69	3.9 ± 0.99	2.7 ± 0.81	2.3 ± 0.67	2.5 ± 0.75	5 ± 1.1	5 ± 1.2	5 ± 1.2	11	10	3.3 ± 0.33	3.4 ± 0.25	3.2 ± 0.40	5 ± 1.2	4.9 ± 0.90	4.5 ± 0.49	1.1 ± 0.16	1.0 ± 0.11	3 ± 1.0	3.1 ± 0.55	reduction of the number of revertants [6]: 28%; Antigenotox. ([5]; 2AA 10 μg/mL, PhA concentration 1.25 (mg/mL)): 24%; IR (mean ± SD) [5, 23]: 3.1 ± 0.29; IR (mean ± SD) [5, 24]: 3.1 ± 0.53; IR (mean ± SD) [5, 25]: 3.7 ± 0.77; IR (mean ± SD) [5, 26]: 3.8 ± 0.85; IR (mean ± SD) [5, 27]: 2.8 ± 0.60; IR (mean ± SD) [5, 28]: 3.4 ± 0.90; IR (mean ± SD) [5, 29]: 2.7 ± 0.34; IR (mean ± SD) [5, 30]: 3.2 ± 0.51; IR (mean ± SD) [5, 31]: 3.6 ± 0.89; IR (mean ± SD) [5, 32]: 3.7 ± 0.80
Nc1ccc2cc3ccccc3cc2c1 [2AA, 2-aminoanthracene]																					IR (mean ± SD) ([5]; control: 2AA 1 μg/mL alone, +S9, experiments with PhAs): 3.37 ± 0.72; IR (mean ± SD) ([5]; control: 2AA 1 μg/mL alone, +S9, experiments with extracts): 4.5 ± 0.99; IR (mean ± SD) ([5]; control: 2AA 10 μg/mL alone, +S9, experiments with PhAs): 4 ± 1.3; IR (mean ± SD) ([5]; control: 2AA 10 μg/mL alone, +S9, experiments with extracts): 6 ± 1.5
O=C(/C=C/c1ccc(O)c(O)c1)O[C@@H]1C[C@](O)(C(=O)O)C[C@@H](O)[C@H]1O [CGA, Chlorogenic acid]																					inhibition of MMC genotoxicity [7]: 65%
CN(C)CCCN1c2ccccc2Sc2ccc(Cl)cc21 [CPZ, chlorpromazine]																					IR (mean ± SD) ([3]; control: CPZ 5 μg/mL alone, UVA irradiation): 3.6 ± 0.40; IR (mean ± SD) ([3]; control: CPZ 10 μg/mL alone, UVA irradiation): 5.1 ± 0.78
